Source: PMC6344423, “Opposing Actions of Adrenocorticotropic Hormone and Glucocorticoids on UCP1-Mediated Respiration in Brown Adipocytes” (Frontiers in Physiology, 2019)

Legend:
primary brown adipocytes = assay: Microplate-based respirometry (XF96), UCP1-mediated uncoupled respiration; format: cell-based, mouse
Description: (§1) Oxygen consumption of primary brown adipocytes was measured at 37°C using microplate-based respirometry (XF96 extracellular flux analyzer, Seahorse Bioscience) as described previously ([Li et al., 2014b]) following the subsequent protocol at day 7 of differentiation. Prior to the respiration measurement, primary cells were washed with warmed, unbuffered assay medium (DMEM basal medium supplemented with 25 mM glucose, 31 mM NaCl, 2 mM GlutaMax and 15 mg/l phenol red, pH 7.4) (basal assay medium). Subsequent to the medium replacement with basal assay medium containing 1–2% essentially fatty acid free bovine serum albumin (BSA), cells were incubated at 37°C in a CO2-free incubator for 1 h. Assay reagents were loaded into the drug injections ports of the sensor cartridges at 10X in basal assay medium (no BSA). After assessment of basal oxygen consumption in untreated cells oligomycin (5 μM) was injected to inhibit coupled respiration and to determine basal leak respiration. Next, effector was added to investigate UCP1-dependant uncoupled respiration. By the addition of FCCP (1 μM) maximal respiratory capacity was determined. Lastly, non-mitochondrial oxygen consumption was assessed by blocking mitochondrial respiration with antimycin A (5 μM). For some experiments, cells were pretreated for 1 h with 50 μM H89 (PKA inhibitor), 1–100 μM propranolol (β-adrenergic receptor antagonist), 40 μM Atglistatin (ATGL inhibitor) and 40 μM Hi76-0079 (HSL inhibitor) 1 h prior to the measurement. Oxygen consumption rates were automatically calculated by the Seahorse XF-96 software. Each experiment was repeated at least three times with similar results and five to eight replicate wells for every condition in each independent experiment. Results are predominately expressed as stimulated respiration which is calculated as fold increase of basal leak.
In our first screen, we tested whether these GsPCR ligands can activate oxygen consumption acutely in brown adipocytes. UCP1-mediated uncoupled respiration was quantified in cultured adherent intact primary brown adipocytes, according to a protocol established in our lab ([Li et al., 2014b]). After recording basal respiration and the fraction of coupled and uncoupled respiration, UCP1-dependent respiration was measured. Finally, maximal respiratory capacity and non-mitochondrial oxygen consumption were assessed by adding the uncoupling agent carbonyl cyanide 4-(trifluoromethoxy) phenylhydrazone (FCCP) and antimycin A was added to block the electron transport chain, respectively. All respiration assays were performed in the presence of BSA to buffer free fatty acid (FFA) levels in the respiration medium.

[1] = test system: Ucp1 gene expression in primary brown adipocytes of Ucp1^ki/ki mice; assay: Luciferase assay, FLUC activity as surrogate for Ucp1 expression; format: cell-based, mouse; details: overnight stimulation, normalized to total protein content, n = 3, Figure 1D
Description: After overnight stimulation of primary brown adipocytes of Ucp1^ki/ki mice luciferase activity was assayed using a commercial kit system (Luciferase Assay System Freezer Pack E4030, Promega GmbH). Primary cells were lysed in 1x reporter lysis buffer by shaking for 20 min at room temperature. 10 μl lysate was mixed with 50 μl luciferase assay substrate solution, and the mixture was measured by FB12 in a luminometer (Single Tube Luminometer, Titertek-Berthold GmbH). Bioluminescence readouts were normalized to total protein content.
We then measured FLUC activity in primary brown adipocytes from Ucp1^ki/ki reporter gene mice to determine the effect of the GsPCR ligands on Ucp1 gene expression in response to overnight stimulation. As the expression of Fluc in these cells is driven by Ucp1promoter, FLUC activity served as a surrogate for Ucp1 expression.

[2] = test system: cytosolic cAMP in primary brown adipocytes; assay: Quantification of cellular cAMP (cAMP-Glo Assay); format: cell-based, mouse
Description: Changes in cytosolic cAMP concentrations were determined in primary brown adipocytes in response to ACTH- or isoproterenol stimulation using cAMP-Glo Assay (Promega) following the manufacturer’s instructions.

[3] = test system: Ucp1 mRNA in primary brown adipocytes; assay: Ucp1 gene expression analysis (qRT-PCR), brown adipocytes; format: cell-based, mouse
Description: (§2) Total RNA was isolated using Trisure (Bioline) and purified with SV total RNA Isolation System (Promega). Reverse transcriptase reactions were performed using SensiFAST cDNA Synthesis Kit (Bioline). Quantitative real-time PCR (qRT-PCR) was performed with SYBR green fluorescent dye in 384-well format using LightCycler 480 (Roche). General Transcription Factor IIB (Gtf2b) served as an internal control. To be able to calculate relative gene expression levels of samples, standard reactions containing serial diluted pooled cDNA of all samples (Pure, 1:2, 1:4, 1:8, 1:16, 1:32 and 1:64) as a template were used to establish a standard curve. The RNA abundance of Ucp1 gene was normalized to the housekeeping gene Gtf2b. The following primers were used: […]

[4] = test system: Ucp1 mRNA in primary white adipocytes; assay: Ucp1 gene expression analysis (qRT-PCR), white adipocytes; format: cell-based, mouse; details: two different doses of ACTH, iWAT adipocytes, normalized to Gtf2b, n = 4, Figure 3B
Description: as §2

[5] = test system: primary brown adipocytes of UCP1^-/-; assay: Respirometry in primary brown adipocytes of UCP1^-/- mice; format: cell-based, mouse; details: ACTH 1 μM, n = 3, Figure 2G
Description: as §1, with “Next, effector was added to investigate UCP1-dependant uncoupled respiration.” left out, “For some experiments, cells were pretreated for 1 h with 50 μM H89 (PKA inhibitor), 1–100 μM propranolol (β-adrenergic receptor antagonist), 40 μM Atglistatin (ATGL inhibitor) and 40 μM Hi76-0079 (HSL inhibitor) 1 h prior to the measurement.” left out, “Each experiment was repeated at least three times with similar results and five to eight replicate wells for every condition in each independent experiment.” left out

BAT = details: supraphysiological dose, 15 μM ACTH; ref van den Beukel et al., 2014; cited from earlier work
From the text: (§3) The melanocortins ACTH and α-MSH are known for their lipolytic action in rodent adipocytes, as first reported in 1958 ([Lafontan, 2012]; [Braun et al., 2018]). […] ACTH enhanced BAT function in obese rats ([York and Al-Baker, 1984]), and increased glucose transport and respiration in isolated brown adipocytes ([Marette and Bukowiecki, 1990]) via fatty acid activation of mitochondrial uncoupled respirati ...

T37i cells = details: ref Iwen et al., 2008, van den Beukel et al., 2014; cited from earlier work
From the text: as §3

[6] = test system: immortalized murine adipocytes; details: ref Iwen et al., 2008, van den Beukel et al., 2014; cited from earlier work
From the text: as §3

[7] = dose–response experiment, Figure 2A

FLUC (luciferase) activity as surrogate for Ucp1 expression [1]: moderate rise in FLUC activity | EC50 ([2]; stimulation for 30 min, n = 3, non-linear regression, Figure 2D): 1490 nM
Substance: ACTH: Murine ACTH(1-39), 39 amino acid peptide hormone, ligand for the melanocortin 2 receptor (MC2R) (SYSMEHFRWGKPVGKKRRPVKVYPNVAENESAEAFPLEF; Corticotropin; UniProt P01193 124-162, looked up)
ACTH concentration that stimulated respiration (fold increase over basal leak respiration) (primary brown adipocytes; [7]): 200 nM | ACTH concentration with the most robust effect on stimulated respiration (primary brown adipocytes; [7]): 1 µM | Stimulated respiration (UCP1-dependent uncoupled respiration) as fold increase of basal leak respiration, GsPCR ligand screen (primary brown adipocytes; primary brown adipocytes (129S6 mice), acute addition after oligomycin 5 μM, medium with 1–2% fatty acid free BSA, 37°C, n = 5, Figures 1B,C): most prominent induction of UCP1-dependant uncoupled respiration | Cytosolic cAMP levels after ACTH stimulation ([2]; increasing concentrations, 30 min, n = 3, Figure 2D): dose-dependent increase of cytosolic cAMP levels | Maximal induction of Ucp1 mRNA relative to ISO ([3]; 1 μM ACTH vs ISO 500 nM, Figures 3A,B): comparable to the effect of ISO treatment | Ucp1 mRNA levels, differentiated brown adipocytes ([3]; two different doses of ACTH, normalized to Gtf2b, n = 4, Figure 3A): dose-dependent increase in Ucp1 mRNA levels | Ucp1 mRNA levels, differentiated white adipocytes [4]: dose-dependent increase in Ucp1 mRNA levels | ACTH-stimulated respiration in UCP1^-/- compared to UCP1^+/+ cells [5]: attenuated in primary brown adipocytes of UCP1^-/- | Glucose uptake into BAT (BAT): increased glucose uptake into BAT | ACTH concentration at which adipocytes respond in cell culture (T37i cells): 50 nM | ACTH concentration at which adipocytes respond in cell culture [6]: 100 nM
